Measured values reported in patent US9040570B2, “Compounds for anti-fungal treatment” (priority 2010, dated 2015).
Converted amounts (≈) assume the structure as drawn. “Also recorded” adds a separate entry of the source.

How the values were obtained:
C. neoformans [1] = assay: AK assay with C. neoformans (lysis); assay type: cell-based
Source text: The AK assay was designed to take advantage of the fact that dead yeast cells lose membrane integrity and leak intracellular enzymes and proteins into culture medium. Upon cell lysis, AK is released into the medium and is detected by a coupled enzyme reaction in which AK converts 2 molecules of ADP into ATP. The ATP and luciferin are used by luciferase and a luminescent signal is generated as a reporter of yeast cell lysis (FIG. 1). […] Additionally, traditional growth-based screening cannot differentiate between fungistatic and fungicidal molecules.
In order to determine whether the AK assay was applicable to C. neoformans, a set of molecules containing drugs was tested. […] Agents Chemother.

C. albicans [2] = assay: follow-up lysis assay with C. albicans; assay type: cell-based
pathogenic yeast = assay: in vitro susceptibility testing of a range of pathogenic yeast, CLSI standardized methods; assay type: cell-based
C. neoformans [3] = assay: MIC against C. neoformans; assay type: cell-based; conditions: for MIC: Cryptococcus neoformans
Protocol: (§1) To complete the characterization of the antifungal activity of triphenylethylene-based estrogen receptor antagonists, toremifene was also evaluated. […] The interaction of toremifene with FLC was also evaluated using checkerboard methods.

S. cerevisiae [4] = assay: adenylate kinase (AK) assay with S. cerevisiae (yeast cell lysis); assay type: cell-based; conditions: for AK assay result (fungilytic activity): screen of Prestwick Library
Protocol: A high throughput assay that detects molecules that cause yeast cell lysis was recently developed as a new method for anti-fungal drug discovery (Krysan and DiDone, J. Biomol. Screen 13:657-64 (2008)). The adenylate kinase (AK) assay has three important features that make it a very useful tool for the identification of fungicidal anti-cryptococcal molecules: it is specific for fungicidal molecules; it is cell-based; and it is carried out with C. neoformans directly.
The AK assay was designed to take advantage of the fact that dead yeast cells lose membrane integrity and leak intracellular enzymes and proteins into culture medium. Upon cell lysis, AK is released into the medium and is detected by a coupled enzyme reaction in which AK converts 2 molecules of ADP into ATP. The ATP and luciferin are used by luciferase and a luminescent signal is generated as a reporter of yeast cell lysis (FIG. 1). The AK assay is specific for molecules that are fungicidal and is more sensitive than traditional growth-based antifungal screening assays. Additionally, traditional growth-based screening cannot differentiate between fungistatic and fungicidal molecules.
As part of the validation studies, a library of 1200 previously marketed drugs (Prestwick Library) was screened using the AK assay with S. cerevisiae (Krysan and DiDone, J. Biomol. Screen 13:657-64 (2008)). The library contained 15 clinically used antifungal drugs, of which 9 scored positive as fungilytic. […] In addition to molecules with known antifungal activity, fungilytic activity was identified in 10 drugs for which no antifungal activity had been reported previously (FIG. 3B). Subsequently, the antifungal activity of two drugs, astemizole and suloctidil was confirmed by other laboratories (Vu and Gelli, Med. Mycol. 1-9 (2009)). Thus, the AK assay is a sensitive reporter of antifungal activity in the HTS setting.

C. neoformans [5] = conditions: cited from earlier work
C. neoformans [6] = assay: non-antibody mediated phagocytosis of C. neoformans by J774 cells; assay type: cell-based, murine; conditions: absence of opsonization; subinhibitory toremifene 4 μg/ml overnight
Protocol: C. neoformans JEC21 cells were treated overnight with DMSO or subinhibitory toremifene (4 μg/ml), washed, and exposed to J774 macrophage cells for 2 hours without antibody.

C. albicans [7] = assay: MIC against C. albicans; assay type: cell-based; conditions: Candida albicans
Protocol: as §1

[8] = other laboratories (Vu and Gelli); cited from earlier work
C. neoformans [9] = conditions: reported by Vu and Gelli; cited from earlier work
C. albicans [10] = assay: mouse model of disseminated candidiasis, kidney fungal burden; assay type: in vivo; conditions: mice, 7 day pre-treatment at 200 mg/kg, C. albicans tail vein injection, 48 hour kidney burden
Protocol: FIGS. 5A and 5B show in vitro and in vivo antifungal activity of TAM/CLM.
Mice were treated with either sham or tamoxifen for seven days prior to challenge with C. albicans by tail vein injection. […] The mice were treated for an additional two days, sacrificed, and kidney fungal burdens determined. Kidney fungal burden is a well-characterized quantitative endpoint that correlates with efficacy. […] These studies further support the potential utility of this class of molecules as antifungal agents.

Myo2-GFP = Myo2-GFP localization to bud neck/septum during mitosis; assay type: cell-based, yeast
calmodulin with Myo2p = system: T1, calmodulin with Myo2p; assay: pull down of Myo2-GFP by sepharose bead immobilized calmodulin from yeast cell lysates; assay type: binding; conditions: in vitro, crude yeast cell lysates
T1 construct: host or cells: Myo2-GFP came from crude lysates of yeast cells expressing it

S. cerevisiae [11] = assay: chemical genetic analysis: growth of S. cerevisiae PKC1/CMD1 strains on tamoxifen plates; assay type: cell-based
Source text: Previously, the molecular target of tamoxifen and related compounds in yeast was unknown. […] Both of these proteins are essential in yeast.

S. cerevisiae cells = assay: growth assay / MIC with S. cerevisiae cells; assay type: cell-based; conditions: Saccharomyces cerevisiae; this strain of S. cerevisiae cells; read-out: minimum inhibitory concentration (MIC)

## CCCCc1oc2ccccc2c1C(=O)c1cc(I)c(OCCN(CC)CC)c(I)c1 [amiodarone]
C. neoformans [1]
  AK release / lysis: AK release was detected

## CCN(CC)CCOc1ccc(C(=C(Cl)c2ccccc2)c2ccccc2)cc1 [clomiphene]
C. albicans [2]
  lysis: cause lysis
Pathogenic yeast
  activity relative to tamoxifen: consistently less active
C. neoformans [3]
  MIC: 64 µg/mL
S. cerevisiae [4]
  AK assay result (fungilytic activity): highly fungilytic
C. neoformans [1]
  AK release / lysis: cause lysis

## COC1=CC(=O)C[C@@H](C)[C@]12Oc1c(Cl)c(OC)cc(OC)c1C2=O [griseofulvin]
S. cerevisiae [4]
  AK assay result (fungilytic activity): negative; also recorded: not positive

## C[C@@H]1[C@H](O)[C@@H](C)/C=C/C=C/C=C/C=C/C=C/C=C/C=C/[C@H](O[C@@H]2O[C@H](C)[C@@H](O)[C@H](N)[C@@H]2O)C[C@@H]2O[C@](O)(C[C@@H](O)C[C@@H](O)[C@H](O)CC[C@@H](O)C[C@@H](O)CC(=O)O[C@H]1C)C[C@H](O)[C@H]2C(=O)O [amphotericin B]
C. neoformans [5]; background statement
  efficiency by which macrophages phagocytose C. neoformans: increase

## CN(C)CCOc1ccc(/C(=C(/CCCl)c2ccccc2)c2ccccc2)cc1 [toremifene]
C. neoformans [3]
  MIC lower than either tamoxifen or clomiphene: 16 fold
  increase of MIC at 30° C. relative to 37° C.: 2 fold
  MIC: 4 µg/mL
C. neoformans [6]
  increase of phagocytosis of C. neoformans by J774 cells: 2 fold
C. albicans [7]
  MIC: 32 µg/mL
C. neoformans [1]; at 4 μg/mL
  increase in AK release: 12 fold

## COc1ccc(CCN2CCC(Nc3nc4ccccc4n3Cc3ccc(F)cc3)CC2)cc1 [astemizole]
[8]
  antifungal activity: confirmed
C. neoformans [9]
  fungicidal activity toward C. neoformans: fungicidal
  interaction with FLC: synergistic
C. neoformans [1]
  AK release / lysis: caused lysis

## CC/C(=C(\c1ccccc1)c1ccc(OCCN(C)C)cc1)c1ccccc1 [tamoxifen]
C. albicans [10]
  lowering of kidney fungal burden: 1.5 log10
C. albicans [2]
  lysis: cause lysis
C. neoformans [3]
  MIC: 64 µg/mL
S. cerevisiae [4]
  AK assay result (fungilytic activity): highly fungilytic
Myo2-GFP
  Myo2-GFP localizing to the bud neck/septum region: prevented
Calmodulin with Myo2p
  ability of immobilized calmodulin to pull down Myo2-GFP: interferes
C. albicans [7]
  MIC: 32 µg/mL
S. cerevisiae [11]; S. cerevisiae cmd1 mutants
  sensitivity of strains with hypofunctional alleles of CMD1: hypersensitive
S. cerevisiae [11]; wild type S. cerevisiae overexpressing CMD1
  effect of CMD1 overexpression on growth on tamoxifen plates: suppressed toxicity
S. cerevisiae [11]; wild type S. cerevisiae overexpressing PKC1
  effect of PKC1 overexpression on growth on tamoxifen plates: exacerbated its effects

## CC[C@H](C)C[C@H](C)CCCCCCCCC(=O)N[C@H]1C[C@@H](O)[C@@H](NCCN)NC(=O)[C@@H]2[C@@H](O)CCN2C(=O)[C@H]([C@H](O)CCN)NC(=O)[C@H]([C@H](O)[C@@H](O)c2ccc(O)cc2)NC(=O)[C@@H]2C[C@@H](O)CN2C(=O)[C@H]([C@@H](C)O)NC1=O [caspofungin]
S. cerevisiae cells
  MIC: 0.062 µg/mL (≈ 0.0567 µM)
S. cerevisiae [4]; fold below
  concentration inducing AK release relative to concentration causing detectable change in growth rate: ~10 fold
C. neoformans [1]
  AK release / lysis: not

## OC(Cn1cncn1)(Cn1cncn1)c1ccc(F)cc1F [fluconazole]
C. neoformans [3]
  MIC: 4 µg/mL
S. cerevisiae [4]
  AK assay result (fungilytic activity): negative; also recorded: not positive
C. neoformans [5]; Nosanchuk et al.
  increase of phagocytosis: 2 fold

## CCCCCCCCNC(C)C(O)c1ccc(SC(C)C)cc1 (centres unmarked) [suloctidil]
[8]
  antifungal activity: confirmed
